Measurements published in PMC9112895, “Selective Inhibition of Plasmodium falciparum ATPase 6 by Artemisinins and Identification of New Classes of Inhibitors after Expression in Yeast” (Antimicrobial Agents and Chemotherapy, 2022).

Molecular target: T1, A623E PfATP6 (Plasmodium falciparum, UniProt Q08853, A623E)
T1 construct: expressed in transfected cells; host or cells: Saccharomyces cerevisiae K667-derived strain
T1 sequence (Q08853 1-1228 A623E): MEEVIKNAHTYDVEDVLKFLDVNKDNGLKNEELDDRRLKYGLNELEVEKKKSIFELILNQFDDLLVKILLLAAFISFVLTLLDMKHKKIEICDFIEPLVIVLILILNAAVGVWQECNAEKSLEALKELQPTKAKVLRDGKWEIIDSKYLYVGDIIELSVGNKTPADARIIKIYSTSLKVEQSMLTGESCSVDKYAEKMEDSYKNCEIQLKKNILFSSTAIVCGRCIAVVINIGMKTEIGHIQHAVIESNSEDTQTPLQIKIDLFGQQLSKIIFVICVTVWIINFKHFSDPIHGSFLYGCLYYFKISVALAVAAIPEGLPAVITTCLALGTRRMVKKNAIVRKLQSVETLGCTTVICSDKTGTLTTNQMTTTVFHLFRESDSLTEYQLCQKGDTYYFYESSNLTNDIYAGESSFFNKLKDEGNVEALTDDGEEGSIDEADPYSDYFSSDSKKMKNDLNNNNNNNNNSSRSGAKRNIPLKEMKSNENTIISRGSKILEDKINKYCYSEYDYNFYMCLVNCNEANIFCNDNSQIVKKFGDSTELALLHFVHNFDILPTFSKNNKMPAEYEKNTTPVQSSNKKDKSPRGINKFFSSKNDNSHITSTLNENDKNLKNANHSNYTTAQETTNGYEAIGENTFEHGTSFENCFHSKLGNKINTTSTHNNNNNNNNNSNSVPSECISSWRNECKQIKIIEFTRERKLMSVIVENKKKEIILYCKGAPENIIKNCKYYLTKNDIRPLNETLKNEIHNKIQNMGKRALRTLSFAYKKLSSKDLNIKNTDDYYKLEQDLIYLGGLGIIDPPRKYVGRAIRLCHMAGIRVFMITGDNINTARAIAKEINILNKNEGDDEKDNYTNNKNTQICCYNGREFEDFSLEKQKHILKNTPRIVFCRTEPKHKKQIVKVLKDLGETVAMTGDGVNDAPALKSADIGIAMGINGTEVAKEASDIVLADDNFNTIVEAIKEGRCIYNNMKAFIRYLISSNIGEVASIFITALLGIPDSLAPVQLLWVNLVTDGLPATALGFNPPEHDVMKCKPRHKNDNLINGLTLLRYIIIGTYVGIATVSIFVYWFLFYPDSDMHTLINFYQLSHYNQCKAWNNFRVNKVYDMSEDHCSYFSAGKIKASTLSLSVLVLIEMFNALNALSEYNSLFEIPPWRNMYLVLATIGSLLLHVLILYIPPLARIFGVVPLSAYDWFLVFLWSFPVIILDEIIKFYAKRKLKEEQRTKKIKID
Test: Yeast whole-cell assay, PfATP6 A623E mutant
Type: cell-based
Settings: read-out: IC50 (mean ± SD)
Protocol: Yeast transformations were performed using the method described by Gietz and Schiestl ([48]), and transformants were selected by an uracil auxotrophic marker. Transformations were confirmed by colony PCR. Both K667 and K667Δpdr5::HIS were transformed with the following plasmids: pUGpd plasmid as a vector-only control (derived from pRS316 [49]); br434 plasmid (derived from pRS316 [50]) containing the SERCA1a coding region from rabbit skeletal fast-twitch muscle (pbr434-SERCA1a); and pUGpd containing the yeast-optimized coding region of PfATP6 from Plasmodium falciparum (pUGpd-PfATP6). Site-directed mutagenesis was performed on the SERCA1a coding region to produce the mutation E255L in the protein. Mutations were also introduced into the PfATP6 coding region to produce mutations L263E, A623E, and S769N and the double mutation A623E/S769N ([13]).
The screening assay used here was developed from the protocol used by Pulcini et al. ([13]). […] The optimal calcium concentration was periodically monitored and, if necessary, adjusted using a calcium concentration range of 10 to 30 mM. […] The yeast growth was estimated from the absorbance at 620 nm in a Tecan plate reader. […] The data collected were analyzed using GraphPad Prism v9.0 (GraphPad software, San Diego, CA, U.S.A).

Work on `CC(=O)C1=C(O)[C@@H]2[C@H]3c4c[nH]c5cccc(c45)C[C@H]3C(C)(C)N2C1=O` [CPA, cyclopiazonic acid] yielded an IC50 of 5.86 µM.
